The values below come from patent US7482318B2, “Protein kinase domain of the large subunit of herpes simplex type 2 ribonucleotide reductase (icp 10pk) has anti-apoptotic activity” (priority 2000, dated 2009).

Structures are written as SMILES. Read-outs that look alike come from different tables or passages of the source.

The test system of experiment [1] is HEK293 cells. In words: TUNEL assay of apoptosis inducers in HEK293 cells. The note with it: 24 hours with 250 nM STS or 300 nM D-Mann, ±SEM, three experiments. Type of experiment: cell-based, human. The protocol:
(§1) Vero (African green monkey kidney cells) were obtained from ATCC and grown in Minimum Essential Medium (MEM) with 10% fetal bovine serum (FBS) and antibiotics. HEK293 (human embryonic kidney) cells were grown in Dulbecco's Modified Eagle's Medium (DMEM) with 10% FBS, 1 mM sodium pyruvate, 0.1 mM non-essential amino acids, and antibiotics. The cell line JHLA1 was established from HEK293 cells by transfection with an ICP10 expression vector and clone selection with G418, and the cell line JHL15 was similarly constructed using a vector which expresses the transmembrane deleted mutant of ICP10, p139™, which is PK negative, as described (Smith et al. 1994, Virology, 200:598-612).
(§2) Apoptosis was induced in HEI293 and JHLA1 cells using staurosporine (STS; Calbiochem, San Diego, Calif.) and D-manritol (D-Mann; Sigma, St. Louis, Mo.). […]
(§3) In situ analysis of apoptosis was performed using In Situ Cell Death Detection Kit (Roche Molecular Biochemicals, Indianapolis, Ind.) according to the manufacturer's instructions. […] Coverslips were mounted in PBS/glycerol, and cells were analyzed by fluorescence microscopy. […] Coverslips were mounted in PBS/glycerol and analyzed by light microscopy. Apoptotic cells (characterized by a dark precipitate) and non-apoptotic cells (diffuse, light staining) were counted in at least five randomly chose microscopic fields (containing at least 250 cells). […]

Experiment [2] concerns JHLA1 cells. In words: TUNEL assay of apoptosis inducers in JHLA1 cells (express ICP10). Type of experiment: cell-based, human. The note with it: JHLA1 cells (printed JHLA15); 24 hours with 250 nM STS or 300 nM D-Mann; ±SEM. The protocol:
as §1, §2, §3

Experiment [3] deals with chromosomal DNA. In words: DNA fragmentation assay (agarose gel DNA ladder). Type of experiment: cell-based, human. The note with it: 24 hours post-treatment. The protocol:
(§4) Apoptosis was induced in HEI293 and JHLA1 cells using staurosporine (STS; Calbiochem, San Diego, Calif.) and D-manritol (D-Mann; Sigma, St. Louis, Mo.). Cells were plated in 6-well plates on glass coverslips or in flasks and allowed to grow for 24 hours at 37° C. in DMEM with 10% FBS, 1 mM sodium pyruvate, 0.1 mM non-essential amino acids, and antibiotics. At 24 hours after plating, media was removed by aspiration, and appropriate dilutions of apoptotic inducers (STS 250 nM, D-Mann 300 mM) were added to the cells for various times indicated in the text. All dilutions were made in cell growth media described above containing 1% FBS. At the indicated times after treatment, cells were processed for TUNEL or harvested for DNA extraction or Western blot assay.
HEK293, JHLA1 and JHL15 cells treated or not treated with apoptotic inducers were collected by gentle scraping at 24 hours post-treatment/infection. DNA was extracted using Puregene DNA Isolation Kit (Gentra Systems, Minneapolis, Minn.) according to the manufacturer's instructions. After spectrophotometrical quantitation, 5-10 micrograms of DNA per samples was separated on a 1.5% agarose gel stained with 0.1 microgram/ml ethidium bromide. Fragmented DNA was visualized by exposure to UV light and photographed using a Polaroid MP-4 land camera.
To determine whether ICP10PK blocks DNA fragmentation induced by STS and D-Mann, treated cells were analyzed using a DNA fragmentation assay which detects degradation of chromosomal DNA into oligonucleosomal fragments.

Experiment [4] deals with JHL15 cells. Put plainly: TUNEL assay of apoptosis inducers in JHL15 cells (express PK negative p139TM). The note with it: JHL15 cells (printed RHL15 for STS); 24 hours with 250 nM STS or 300 nM D-Mann; ±SEM. Format: cell-based, human. The protocol: as §1, §2, §3
Experiment [5] has as its system primary hippocampal cultures. Type of experiment: cell-based, rat.
Method: Briefly, minced fetal hippocampi were incubated with 0.25% trypsin for 30 minutes at 36° C. followed by dissociation of neurons in MEM supplemented with 10% FBS, 10% horse serum, 2 mM glutamine, and 20 microgram/ml DNase II, using a sterile Pasteur pipette. Neurons were plated at approximately 750,000 cells per 35 mm dish on glass coverslips pre-coated with poly-L-lysine and incubated at 36° C., 10% CO2. At 24 hours, media was replaced with MEM supplemented with 10% horse serum and 2 mM glutamine, and the cultures were returned to a 36 degrees C., 10% CO2 incubator.
In situ analysis of apoptosis was performed using In Situ Cell Death Detection Kit (Roche Molecular Biochemicals, Indianapolis, Ind.) according to the manufacturer's instructions. Briefly, infected/treated or non-infected/non-treated cells were fixed with 4% paraformaldehyde (PFA) in PBS (pH=7.4) for 30 minutes at room temperature followed by permiabilization of cells in 0.1% Triton X-100 (in 0.1% sodium citrate) for 2 minutes on ice. DNA breaks were labeled by addition of terminal deoxynucleotidyl transferase (TdT) and nucleotide mixture (containing dUTP-fluorescein conjugated) and incubation for 60 minutes at 37° C. Coverslips were mounted in PBS/glycerol, and cells were analyzed by fluorescence microscopy. After extensive washes in PBS, cells were incubated for 30 minutes at 37° C. with an anti-fluorescein antibody conjugated with alkaline phosphatase (AP). Chromogenic reaction was carried out by adding AP substrate solution (NBT/BCIP in 0.1 M Tris-HCl pH=9.5, 0.05 M MCl2, 0.1M NaCl, and 1 mM levamisole) and incubation for 10 minutes at room temperature. Coverslips were mounted in PBS/glycerol and analyzed by light microscopy. Apoptotic cells (characterized by a dark precipitate) and non-apoptotic cells (diffuse, light staining) were counted in at least five randomly chose microscopic fields (containing at least 250 cells). The percentage of mock-infected neurons undergoing apoptosis (between 4 and 5%) was subtracted from each average.
Cells were infected with 10 PFU/cell of HSV-2 or ICP10deltaPK and apoptosis was determined by TUNEL at 16 and 24 hours p.i. A total of 200-300 cells were counted in five randomly chosen microscopic fields and the mean percentage of TUNEL-positive cells was determined.
The test system of experiment [6] is procaspase-3 (caspase-3p32). Put plainly: Western blot of inactive procaspase-3 (caspase-3p32), densitometric scanning. Format: cell-based, human. Here is the method: as §4
(§5) Cells were collected by gentle scraping and centrifuged at 2,500 rpm for 5 minutes at 4° C. The dry pellet was stored at −80° C. until use. Cells were lysed with RIPA buffer (30 mM Tris-Hcl pH=7.4, […], 1% Nonidet P-40, 0/1% SDS, 0.5% sodium deoxycholate, 1 mM EDTA, 1 mM DTT, 2 mM MgCl2, 0.5 mM PMSF) supplemented with phosphatase and protease inhibitor cocktails (Sigma, St. Louis, Mo.) and sonicated for 1 minute at 25% output power using the Sonicator/Ultrasonic Processor (Misonix, Inc., Farmingdale, N.Y.). Total protein was determined by BCA (Pierce, Rockford, Ill.) and proteins were resolved by SDS-PAGE. Transfer of separated proteins to Schlecher and Schuell nitrocellulose membranes was performed overnight using an electroblotting apparatus. Non-specific binding was blocked by incubating blots for 1 hour at 37° C. in TN-T buffer (0.01 M Tris-Hcl pH=7.4, 0.15 M NaCl, 0.05% Tween 20) containing 1% bovine serum albumin (BSA). After washing with TN-T buffer, the blots were incubated for 2 hours at room temperature with the appropriate antibodies diluted in TN-T buffer containing 0.1% BSA. After three washes with TN-T buffer, the blots were incubated with Protein A-Peroxidase for 1 hour at room temperature. […]
Background: In western blotting, separated proteins are transferred to a membrane and probed.

In experiment [7] the test system is PARP. Put plainly: Western blot of PARP cleavage. Format: cell-based, human. The note with it: STS-treated. Here is the method:
as §5, with “(BSA).” for “(BSA). After washing with TN-T buffer, the blots were incubated for 2 hours at room temperature with the appropriate antibodies diluted in TN-T buffer containing 0.1% BSA. After three washes with TN-T buffer, the blots were incubated with Protein A-Peroxidase for 1 hour at room temperature.”
To determine whether ICP10PK blocks PARP cleavage by caspase-3, a hallmark of caspase-3 dependent apoptosis, Western blot analysis using PARP antibody was performed on STS-treated HEK293, JHL15, and JHLA1 cells. A 116 kDa band consistent with the uncleaved PARP was detected in mock- and STS-treated cells.

Experiment [8] relates to caspase-3p20. In words: Immunohistochemistry for activated caspase-3 cleavage product (caspase-3p20) in HEK293, JHL15, JHLA1 cells. Type of experiment: cell-based, human. The note with it: STS-treated, ±SEM. The text has this:
FIG. 3B is a graph depicting inhibition of caspase activation by ICP10PK. HEK93, JHL15, and JHLA1 cells treated with STS (as described in FIG. 3A) were stained with caspase3p20 antibody (specific for the activated caspase-3 which is the large fragment of the pro-enzyme), and cells in five randomly chosen microscopic fields were counted. Results are expressed as mean percentage of positive cells±SEM (*=p<0.01 vs. HEK294; +=p<0.01 vs. JHL15 by Student test).
Previous reports have shown that STS-induced cell death is a caspase-dependent process (Jacobson et al., 1996, J. Cell. Biol., 133:1041-1051). […] To determine whether ICP10PK inhibits cleavage of pro-caspase-3, a central determinant of many apoptotic processes, Western blot analysis was performed on cell lysates obtained from STS-treated cells. […] The densitometric units were equal to 0.7 for both STS-treated HEK293 and JHL15 cells and 1.0 and 1.1 for DMSO-treated HEK293 and JHL15 cells, respectively). The levels of caspase-3p32 were similar in STS-treated and untreated JHLA1 cells (FIG. 3A, lanes 5 and 6, respectively). In this case, the densitometric units were equal to 1.2 for both treatments.

Experiment [9] has as its system P-MAPK1/2. Put plainly: Immunoblot of P-MAPK1/2 (MAPK activation) in hippocampal neurons. The note with it: 20 micromoles U0126. Type of experiment: cell-based, rat.
Method: Cells were lysed with RIPA buffer (30 mM Tris-Hcl pH=7.4, 0.15 mM NaCl, 1% Nonidet P-40, 0/1% SDS, 0.5% sodium deoxycholate, 1 mM EDTA, 1 mM DTT, 2 mM MgCl2, 0.5 mM PMSF) supplemented with phosphatase and protease inhibitor cocktails (Sigma, St. Louis, Mo.) and sonicated for 1 minute at 25% output power using the Sonicator/Ultrasonic Processor (Misonix, Inc., Farmingdale, N.Y.). Total protein was determined by BCA (Pierce, Rockford, Ill.) and proteins were resolved by SDS-PAGE. Transfer of separated proteins to Schlecher and Schuell nitrocellulose membranes was performed overnight using an electroblotting apparatus. Non-specific binding was blocked by incubating blots for 1 hour at 37° C. in TN-T buffer (0.01 M Tris-Hcl pH=7.4, 0.15 M NaCl, 0.05% Tween 20) containing 1% bovine serum albumin (BSA). After washing with TN-T buffer, the blots were incubated for 2 hours at room temperature with the appropriate antibodies diluted in TN-T buffer containing 0.1% BSA. After three washes with TN-T buffer, the blots were incubated with Protein A-Peroxidase for 1 hour at room temperature. […]
Culture of hippocampal neurons were infected with HSV-2 or ICP10deltaPK at 10 PFU/cell and analyzed for MAPK activation by immunoblotting with antibodies specific for the unphosphorylated (MAPK) and phosphorylated (activated) MAPK species (P-MAPK1/2). […]

Turning to `OC[C@@H](O)[C@@H](O)[C@H](O)[C@H](O)CO` [D-Mann, D-mannitol], the “percentage of apoptotic (TUNEL-positive) cells” value was 79±7.4% in experiment [1], 13±8% in experiment [2] and 58±7% in experiment [4]. Besides, the “DNA fragmentation (DNA ladder pattern)” value in [3] (HEK293 cells) is “exhibited a DNA ladder pattern characteristic of apoptosis”; in experiment [3] (JHLA1 cells), “did not exhibit DNA fragmentation”.

As for `O=c1cc(N2CCOCC2)oc2c(-c3ccccc3)cccc12` [LY294002], the “percentage of TUNEL-positive cells” value in [5] (HSV-2 infected cultures, 100 micromolar LY294002) stood at 24.8±2.3; in experiment [5] (mock-infected cultures, 100 micromolar LY294002 (non-treated 5±3)), 72±4.5.

Turning to `CN[C@@H]1C[C@H]2O[C@@](C)([C@@H]1OC)n1c3ccccc3c3c4c(c5c6ccccc6n2c5c31)C(=O)NC4` [STS, staurosporine], the “percentage of apoptotic (TUNEL-positive) cells” value in experiment [1] was 71±12.4%; in experiment [2] it was 5.8 ± 2.1%; in [4] it was 79±4.9%. Moreover, the entries for the “DNA fragmentation (DNA ladder pattern)” value in experiment [3] (HEK293 cells) and in experiment [3] (JHLA1 cells) were “exhibited a DNA ladder pattern characteristic of apoptosis” and “did not exhibit DNA fragmentation”, respectively. The “levels of caspase-3p32” value in experiment [6] (HEK293 cells, STS 250 nM (DMSO control 1.0)) stood at 0.7 densitometric units; in experiment [6] (JHL15 cells, STS 250 nM (DMSO control 1.1)), 0.7 densitometric units; in [6] (JHLA1 cells, STS 250 nM (untreated 1.2)) it was 1.2 densitometric units. The “85 kDa PARP cleavage product” value in [7] (HEK293 cells) and in [7] (JHL15 cells) was “detected” each time. In addition, the “mean percentage of cells positive for caspase-3p20” value stood at 40.5±0.9% in experiment [8] (HEK293 cells), 36.4±7.6% in experiment [8] (JHL15 cells) and 9.3±0.1% in [8] (JHLA1 cells).

On to `N#CC(=C(/N)Sc1ccccc1N)/C(C#N)=C(\N)Sc1ccccc1N` [U0126], for which the “percentage of TUNEL-positive (apoptotic) cells” value in experiment [5] (HSV-2 infected cultures, 10 micromoles U0126) was 20±1.6%; in experiment [5] (HSV-2 infected cultures, 20 micromoles U0126), 39.3±2.8%. In addition, the “P-MAPK1/2 levels vs untreated HSV-2 infected cells” value in [9] is “significantly lower”.
